Laboratory results taken from doi:10.1101/2024.10.14.618300v1 (biorxiv, 2024).
pKd, pKi: −log10 of the molar value.

What was measured:
[1] = molecular target: T1, mTSPO (recombinant mouse translocator protein) (Mus musculus, UniProt P50637); test: […] NMR chemical shift titration; assay type: binding
[2] = molecular target: T1, mTSPO (recombinant mouse translocator protein); test: […] NMR competition with RF3458; assay type: binding

pKd [1]	pKi [2]	SMILES
~5.30	–	CN(C(=O)[C@H](Cc1ccc(F)cc1)NC(=O)c1ccccc1)c1ccccc1 [4b, RF3458]
–	~4.05	CC[C@@H](C)N(C)C(=O)c1cc2ccccc2c(-c2ccccc2Cl)n1 [(R)-PK 11195, 1-(2-Chlorophenyl)-N-methyl-N-(1-methylpropyl)-3-isoquinolinecarboxamide]
